From article PMC12022909, “A Multicomponent Reaction-Based Platform Opens New Avenues in Aryl Hydrocarbon Receptor Modulation” (ACS Central Science, 2025) come the findings set out here.

Where two headings read alike, the source gives them in different places.

The target in series [1] is T1, aryl hydrocarbon receptor (AhR) (Homo sapiens, UniProt P35869).
T1 construct: AhR-dependent reporter gene activity was determined in human HepG2 cells stably transfected with an XRE; endogenous in cells; host or cells: XRE-HepG2 (human HepG2 hepatoma cells stably carrying an XRE-luciferase plasmid)
T1 sequence (P35869 11-848): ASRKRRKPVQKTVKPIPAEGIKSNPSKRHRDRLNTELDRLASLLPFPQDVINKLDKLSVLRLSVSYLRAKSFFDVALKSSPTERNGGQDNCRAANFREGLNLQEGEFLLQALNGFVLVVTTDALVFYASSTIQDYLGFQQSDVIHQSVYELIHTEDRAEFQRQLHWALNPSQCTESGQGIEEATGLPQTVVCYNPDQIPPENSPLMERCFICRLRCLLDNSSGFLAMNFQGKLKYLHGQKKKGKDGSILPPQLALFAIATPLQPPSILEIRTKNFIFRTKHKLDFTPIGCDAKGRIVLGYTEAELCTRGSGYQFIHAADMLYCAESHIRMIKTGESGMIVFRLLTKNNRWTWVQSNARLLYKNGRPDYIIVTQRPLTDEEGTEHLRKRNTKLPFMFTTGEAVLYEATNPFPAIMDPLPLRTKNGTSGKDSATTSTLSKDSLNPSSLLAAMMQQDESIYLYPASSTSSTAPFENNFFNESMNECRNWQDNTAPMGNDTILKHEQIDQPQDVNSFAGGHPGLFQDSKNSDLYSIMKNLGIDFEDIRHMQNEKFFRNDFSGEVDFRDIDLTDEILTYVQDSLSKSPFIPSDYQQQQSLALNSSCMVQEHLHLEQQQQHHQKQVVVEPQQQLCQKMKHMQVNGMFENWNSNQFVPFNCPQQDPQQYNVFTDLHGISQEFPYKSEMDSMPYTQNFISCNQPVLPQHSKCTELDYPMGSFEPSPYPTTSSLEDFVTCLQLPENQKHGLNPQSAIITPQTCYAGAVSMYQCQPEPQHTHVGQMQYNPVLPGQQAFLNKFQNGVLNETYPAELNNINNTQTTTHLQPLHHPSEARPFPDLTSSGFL
Briefly: AhR/XRE-dependent luciferase reporter gene assay in XRE-HepG2 cells. The note with it: for EC50: 8 h; for AhR-dependent reporter gene activity on co-treatment with BaP: preliminary data. It is filed as cell-based. A general note: Reporter assays use an easily measured gene product as a stand-in for the process of interest.
Protocol: (f) AhR/XRE-dependent reporter gene activity results (EC50/μM).
Data are shown as mean ± SEM.
The human XRE -HepG2 reporter cell -line was a kind gift of K. Gradin and L. Poellinger (Karolinska Institute, Stockholm,
antibiotic/antimycotic solution, and 0.8 mg/ml G418. All cells were cultivated at 37 °C in a humidified atmosphere containing 5% CO 2.
AhR-dependent reporter gene activity was determined in human HepG2 cells stably transfected with an XRE -harboring luciferase plasmid (XRE-HepG2 cells). […] Luciferase activity was normalized to protein content.

The subject of another series is HaCaT cells. Put plainly: UVA phototoxicity, caspase 3 activity in HaCaT cells. It is filed as cell-based, human. The settings on record: HaCaT, 1 h, UVA 5 J/cm2. The procedure:
Irradiation with UVA and caspase 3 activity measurement […]
culture media was exchanged with PBS and the cells were sham or UVA (5 J/cm2) irradiated using the BS-02 irradiation chamber (Opsytec Dr. Gröbel, Ettlingen Germany). Media was added to the cells and after 4 h incubation, caspase 3 activity was measured as described previously.[33] Protein quantification was done with the Bio-Rad DC protein assay kit (Bio-Rad Laboratories, Hercules, CA) according to the manufacturer protocol.
We compared the phototoxic potential of five of our test compounds (8, 10, 5b, 5h, 4b) as well as the FDA-approved AhR activator […]
induced caspase activity at a concentration of 100 nM (Figure S36A). At a 10-fold higher concentration (1 µM) two of the test compounds […]
Figure S36. […] For statistical analysis a two-way ANOVA (Tukey post-hoc) was performed and data are shown as mean ± SEM. (*, p ≤ 0.05). […]

A short description of series [2]: Solubility in the growing media during cytotoxicity testing. The class given is physicochemical. The note with it: concentration of 100 µM. The protocol:
A phosphatidylserine exposure was used to determine cell viability. Cells were washed with PBS, pelleted, and then incubated with annexin binding buffer containing Annexin V-APC (Life Technologies) for 15 min in the dark. Then, samples were analyzed by flow cytometry using FACSCanto II and FACSDiva (BD Biosciences, Franklin Lakes, NJ, USA). Data represents the percentage of non - apoptotic cells (Ann -APC-).
The cytotoxicity of a selection of the synthesized compounds was assessed after 24 hours of treatment in two human cell lines, Jurkat and HEK293T, coming from either tumoral T-cell lymphocytes or non-tumoral embryonic kidney fibroblasts, respectively. […]
the pro-apoptotic activity was not significant below 10 µM for most compounds in both cell lines, except for 5i, 5k and 5l in both cell lines, as well as 9a in Jurkat and 5e HEK293T cells (Figure S35A-B).
Moreover, the cytotoxicity of compounds 4d, 5b, 5h, 8, 10, and 12d at a higher concentration (100 µM) was assessed in both cell lines, Jurkat and HEK293T. The cytotoxicity of compounds 5b, 5h, and 12d could not be properly tested as the compounds were not soluble […]
effects observed for compound 4d in Jurkat cells and compound 8 in HEK293T cells (Figure S35C).
Figure S35. A) Jurkat and B) HEK293T cells were treated with 1 and 10 µM doses of the corresponding compound for 24 hours. Indicated doses of fluorizoline were used as a positive control of cell death. C) Jurkat and HEK293T cells were treated with 100 µM of the corresponding compound for 24 hours. Viability was measured by flow cytometry, and it is expressed as the mean ± SEM (n = 3) of the percentage of non -apoptotic cells (Ann-APC-). * p < 0.05, ** p < 0.01 *** p < […]
(1 picture or pasted object on this page, not shown here)

The mark [3] stands for this setting: XRE-HepG2 cells, unit as in the supplements, read-out: AhR/XRE-dependent luciferase activity EC50.
Where [4] appears, read: XRE-HepG2 hepatoma cells, luciferase activity, read-out: AhR/XRE-dependent reporter gene activity (EC50).

Consider `CC1(C)CC(=O)C(c2c3[nH]c4ccccc4c3cc3[nH]c4ccccc4c23)=C(O)C1` [4a], for which, in series [1] (setting [3]), the EC50 worked out at 2.25 µM.

With `O=C1OCC(O)=C1c1c2[nH]c3ccccc3c2cc2[nH]c3ccccc3c12` [4b], the EC50 in series [1] (setting [3]) is over 10 µM. Further, the “AhR-dependent reporter gene activity on co-treatment with BaP” value in series [1] is given as “synergistic effects”. Besides, the “UVA radiation-induced caspase activity (phototoxicity)” value in the series with HaCaT cells (100 nM) is “neither tapinarof nor our 6-ICZ compounds enhanced”; with HaCaT cells (1 µM) it was “did not show any signs of phototoxicity”.

In the case of `O=c1oc2ccccc2c(O)c1-c1c2[nH]c3ccccc3c2cc2[nH]c3ccccc3c12` [4c], the EC50 in series [1] (setting [3]) was 4.51 µM. In the case of `Brc1ccc2[nH]cc(-c3c4[nH]c5ccccc5c4cc4[nH]c5ccccc5c34)c2c1` [5b], in series [1] (setting [3]), the EC50 amounted to 0.94 µM. Moreover, the figures for the “UVA radiation-induced caspase activity (phototoxicity)” value in the series on HaCaT cells (100 nM) and with HaCaT cells (1 µM) were “neither tapinarof nor our 6-ICZ compounds enhanced” and “exhibited similar effects to FICZ”, respectively. Moreover, the “solubility in the growing media” value in series [2] is listed as “not soluble”. As to `c1ccc2c(-c3c4[nH]c5ccccc5c4cc4[nH]c5ccccc5c34)c[nH]c2c1` [5c], the EC50 in series [1] (setting [4]) was 0.36 µM. As to `c1ccc(-c2[nH]c3ccccc3c2-c2c3[nH]c4ccccc4c3cc3[nH]c4ccccc4c23)cc1` [5f], in series [1] (setting [3]), the EC50 is 1.17 µM. Still for that read-out and setting: then `OCc1[nH]c2ccccc2c1-c1c2[nH]c3ccccc3c2cc2[nH]c3ccccc3c12` [5g], with 1.82 µM. Turning to `Cc1cccc2[nH]cc(-c3c4[nH]c5ccccc5c4cc4[nH]c5ccccc5c34)c12` [5h], in series [1] (setting [3]), the EC50 turned out to be 0.57 µM. For the same molecule, the “UVA radiation-induced caspase activity (phototoxicity)” value with HaCaT cells (100 nM) is given as “neither tapinarof nor our 6-ICZ compounds enhanced”. Moreover, in series [2], the “solubility in the growing media” value is “not soluble”. Take `Cc1cccc2c(-c3c4[nH]c5ccccc5c4cc4[nH]c5ccccc5c34)c[nH]c12` [5i]: the EC50 in series [1] (setting [3]) is 0.45 µM. Take `Cc1[nH]c2ccccc2c1-c1c2c3ccccc3n(C)c2cc2c3ccccc3n(C)c12` [5j]: the EC50 in series [1] (setting [3]) was 1.2 µM. For the same molecule, in series [1] (from reporter gene EC50 values), the “reduction of activity compared to N,N′-H analog 5e” value is recorded as 2.3 fold. On to `COc1ccc2[nH]c3c(-c4c(C)[nH]c5ccccc45)c4c(cc3c2c1)[nH]c1ccc(OC)cc14` [5l], for which the EC50 in series [1] (setting [3]) was determined as 0.63 µM. `O=C(O)c1ccc2c(-c3c4[nH]c5ccccc5c4cc4[nH]c5ccccc5c34)c[nH]c2c1` [5m]: the EC50 in series [1] (setting [3]) is over 10 µM. The same measure, in the same setting: then `CS(=O)(=O)Nc1ccc(-c2ccc3[nH]cc(-c4c5[nH]c6ccccc6c5cc5[nH]c6ccccc6c45)c3c2)cc1` [9a], with 0.1 µM.

In the case of `Cc1ccc(C#Cc2ccc3[nH]cc(-c4c5[nH]c6ccccc6c5cc5[nH]c6ccccc6c45)c3c2)cc1` [9b], the EC50 in series [1] (setting [3]) is over 10 µM. Further, the “AhR-dependent reporter gene activity on co-treatment with BaP” value in series [1] is “synergistic effects”. With `CCCCCNC(=O)c1ccc2c(-c3c4[nH]c5ccccc5c4cc4[nH]c5ccccc5c34)c[nH]c2c1` [12a], the EC50 in series [1] (setting [4]) stood at 0.4 µM. Take `O=C(NCCCCCCCCCCNC(=O)c1ccc2c(-c3c4[nH]c5ccccc5c4cc4[nH]c5ccccc5c34)c[nH]c2c1)c1ccc2c(-c3c4[nH]c5ccccc5c4cc4[nH]c5ccccc5c34)c[nH]c2c1` [12c]: the EC50 in series [1] (setting [3]) amounted to 6.06 µM.

Turning to `O=C(NCCCOCCOCCOCCCNC(=O)c1ccc2c(-c3c4[nH]c5ccccc5c4cc4[nH]c5ccccc5c34)c[nH]c2c1)c1ccc2c(-c3c4[nH]c5ccccc5c4cc4[nH]c5ccccc5c34)c[nH]c2c1` [12d], in series [1] (setting [3]), the EC50 was over 10 µM. For the same molecule, in series [2], the “solubility in the growing media” value is “not soluble”. In the case of `Clc1cc2c(cc1Cl)Oc1cc(Cl)c(Cl)cc1O2` [TCDD, 2,3,7,8-tetrachlorodibenzodioxin, reference compound], in series [1] (setting [3]), the EC50 came to 0.003 µM. Consider `CC(C)c1c(O)cc(/C=C/c2ccccc2)cc1O` [Tapinarof, tapinarof, reference compound], for which the “UVA radiation-induced caspase activity (phototoxicity)” value is listed as “neither tapinarof nor our 6-ICZ compounds enhanced” with HaCaT cells (100 nM) and “did not show any signs of phototoxicity” in the series with HaCaT cells (1 µM).
